The record followed here is patent US10934310B2, “Inhibitors of Bruton's tyrosine kinase and method of their use” (JANSSEN PHARMACEUTICA NV, priority 2015, dated 2021).

unphosphorylated-BTK kinase domain (UP-BTK), GST-tagged human BTK (389-659aa), sequence (Q06187 389-659): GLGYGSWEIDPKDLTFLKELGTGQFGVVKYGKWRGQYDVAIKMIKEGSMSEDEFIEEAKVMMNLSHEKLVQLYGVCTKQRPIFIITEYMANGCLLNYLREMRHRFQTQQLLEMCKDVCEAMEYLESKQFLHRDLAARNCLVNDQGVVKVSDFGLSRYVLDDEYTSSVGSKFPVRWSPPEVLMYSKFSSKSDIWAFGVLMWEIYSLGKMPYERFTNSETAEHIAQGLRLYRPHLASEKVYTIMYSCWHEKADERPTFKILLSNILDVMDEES

For one experiment, the target named is unphosphorylated-BTK kinase domain (UP-BTK), GST-tagged human BTK (389-659aa) (Homo sapiens (Human), UniProt Q06187). Briefly: BTK Kinase Lanthascreen Binding Assay. Conditions: Lanthascreen binding, 60 minutes incubation; pIC50 = negative log of the IC50 in molar. The procedure:
BTK Kinase Lanthascreen Binding Assay:
A BTK kinase lanthascreen binding assay monitors compound binding to unphosphorylated-BTK kinase domain (UP-BTK), by competing with a fluorescent labeled tracer. […] Data were analyzed using Xlfit™ version 5.3 from ID Business Solutions (Guildford), Microsoft Excel add-in. pIC50 refers to the negative log of the IC50 in molar.
As to `C=CC(=O)N[C@@H]1CCCC[C@H]1NC(=O)c1sc2nccc3c2c1NC(=O)N3c1ccc(Oc2ccccc2)nc1C` (single isomer, unassigned) [Example 322, N-((1R,2R)-2-Acrylamidocyclohexyl)-5-(*S)-(2-methyl-6-phenoxypyridin-3-yl)-4-oxo-4,5-dihydro-3H-1-thia-3,5,8-triazaacenaphthylene-2-carboxamide], the “BTK_I_binding pIC50” value is 6.81.

For `C=CC(=O)N[C@H]1CCC[C@H](NC(=O)c2sc3nccc4c3c2NC(=O)N4c2ccc(Oc3ccccc3)nc2)C1` (single isomer, unassigned) [Example 323], the “BTK_I_binding pIC50” value is 7.13. Still for that read-out and setting: for `C=CC(=O)N[C@H]1CC[C@@H](NC(=O)c2sc3nccc4c3c2NC(=O)N4c2ccc(Oc3ccccc3)cn2)C1` (single isomer, unassigned) [Example 328, N-((1*R,3*S)-3-Acrylamidocyclopentyl)-4-oxo-5-(5-phenoxypyridin-2-yl)-4,5-dihydro-3H-1-thia-3,5,8-triazaacenaphthylene-2-carboxamide] the value was 6.58; for `C=CC(=O)N[C@@H]1CC[C@@H](NC(=O)c2sc3nccc4c3c2NC(=O)N4c2cnc(Oc3ccccc3)cc2C)C1` (single isomer, unassigned) [Example 329, N-((1*R,3*R)-3-Acrylamidocyclopentyl)-5-(*S)-(4-methyl-6-phenoxypyridin-3-yl)-4-oxo-4,5-dihydro-3H-1-thia-3,5,8-triazaacenaphthylene-2-carboxamide], 6.85; for `C=CC(=O)N[C@@H]1CCC[C@@H](NC(=O)c2sc3nccc4c3c2NC(=O)N4c2ccc(Oc3ccccc3)nc2)C1` (single isomer, unassigned) [Example 331, N-((1*R,3*R)-3-Acrylamidocyclohexyl)-4-oxo-5-(6-phenoxypyridin-3-yl)-4,5-dihydro-3H-1-thia-3,5,8-triazaacenaphthylene-2-carboxamide], 6.66.

For `C=CC(=O)N[C@@H]1CCC[C@@H](NC(=O)c2sc3nccc4c3c2NC(=O)N4c2cnc(Oc3ccccc3)cc2C)C1` (single isomer, unassigned) [Example 332, N-((1*R,3*R)-3-Acrylamidocyclohexyl)-5-(*S)-(4-methyl-6-phenoxypyridin-3-yl)-4-oxo-4,5-dihydro-3H-1-thia-3,5,8-triazaacenaphthylene-2-carboxamide], the “BTK_I_binding pIC50” value turned out to be 6.60.

As to `Cc1nc(Oc2ccccc2)ccc1N1C(=O)Nc2c(C(=O)N[C@@H]3CCCC[C@@H]3N)sc3nccc1c23` (single isomer, unassigned) [Example 333, N-((1R,2S)-2-Aminocyclohexyl)-5-(*S)-(2-methyl-6-phenoxypyridin-3-yl)-4-oxo-4,5-dihydro-3H-1-thia-3,5,8-triazaacenaphthylene-2-carboxamide], the “BTK_I_binding pIC50” value came to 6.50. For `C=CC(=O)N[C@@H]1CC[C@@H](NC(=O)c2sc3nccc4c3c2NC(=O)N4c2ccc(Oc3ccccc3)nc2)C1` (single isomer, unassigned) [Example 334, N-((1*R,3*R)-3-Acrylamidocyclopentyl)-4-oxo-5-(6-phenoxypyridin-3-yl)-4,5-dihydro-3H-1-thia-3,5,8-triazaacenaphthylene-2-carboxamide], the “BTK_I_binding pIC50” value stood at 6.81. Same read-out and setting: in the case of `Cc1cc(CC(C)C)ncc1N1C(=O)Nc2c(C(=O)N[C@@H]3CCCC[C@@H]3N)sc3nccc1c23` (single isomer, unassigned) [Example 335, N-((1R,2S)-2-Aminocyclohexyl)-5-(*S)-(6-isobutyl-4-methylpyridin-3-yl)-4-oxo-4,5-dihydro-3H-1-thia-3,5,8-triazaacenaphthylene-2-carboxamide] it was 6.38; in that of `Cc1nc(Oc2ccccc2)ccc1N1C(=O)Nc2c(C(=O)N[C@@H]3CCC[C@H]3N)sc3nccc1c23` (single isomer, unassigned) [Example 339, N-((1R,2R)-2-Aminocyclopentyl)-5-(*S)-(2-methyl-6-phenoxypyridin-3-yl)-4-oxo-4,5-dihydro-3H-1-thia-3,5,8-triazaacenaphthylene-2-carboxamide], 6.28. Take `CC(=O)N[C@H]1CCCC[C@H]1NC(=O)c1sc2nccc3c2c1NC(=O)N3c1ccc(Oc2ccccc2)nc1C` (single isomer, unassigned) [Example 340, N-((1R,2S)-2-Acetamidocyclohexyl)-5-(*S)-(2-methyl-6-phenoxypyridin-3-yl)-4-oxo-4,5-dihydro-3H-1-thia-3,5,8-triazaacenaphthylene-2-carboxamide]: the “BTK_I_binding pIC50” value is 6.26. Still for that read-out and setting: in the case of `C=CC(=O)N[C@H]1CCCC[C@H]1NC(=O)c1sc2nccc3c2c1NC(=O)N3c1cnc(OC2CCCC2)cc1C` (single isomer, unassigned) [Example 341, N-((1R,2S)-2-Acrylamidocyclohexyl)-5-(*R)-(6-(cyclopentyloxy)-4-methylpyridin-3-yl)-4-oxo-4,5-dihydro-3H-1-thia-3,5,8-triazaacenaphthylene-2-carboxamide] it was 6.23; in that of `CCC(=O)N[C@H]1CCCC[C@H]1NC(=O)c1sc2nccc3c2c1NC(=O)N3c1ccc(Oc2ccccc2)nc1C` (single isomer, unassigned) [Example 343, 5-(*S)-(2-Methyl-6-phenoxypyridin-3-yl)-4-oxo-N-((1R,2S)-2-propionamidocyclohexyl)-4,5-dihydro-3H-1-thia-3,5,8-triazaacenaphthylene-2-carboxamide], 6.11.

With `CC(=O)N[C@H]1CCC[C@H]1NC(=O)c1sc2nccc3c2c1NC(=O)N3c1ccc(Oc2ccccc2)nc1C` (single isomer, unassigned) [Example 345, N-((1R,2S)-2-Acetamidocyclopentyl)-5-(*S)-(2-methyl-6-phenoxypyridin-3-yl)-4-oxo-4,5-dihydro-3H-1-thia-3,5,8-triazaacenaphthylene-2-carboxamide], the “BTK_I_binding pIC50” value came out at 6.09.

As to `CCC(=O)N[C@H]1CCC[C@H]1NC(=O)c1sc2nccc3c2c1NC(=O)N3c1ccc(Oc2ccccc2)nc1C` (single isomer, unassigned) [Example 346, 5-(*S)-(2-Methyl-6-phenoxypyridin-3-yl)-4-oxo-N-((1R,2S)-2-propionamidocyclopentyl)-4,5-dihydro-3H-1-thia-3,5,8-triazaacenaphthylene-2-carboxamide], the “BTK_I_binding pIC50” value stood at 6.07. Same read-out and setting: in the case of `C=CC(=O)N[C@H]1CCC[C@H]1NC(=O)c1sc2nccc3c2c1NC(=O)N3c1ccc(OC2CCOCC2)cc1C` (single isomer, unassigned) [Example 347, N-((1R,2S)-2-Acrylamidocyclopentyl)-5-(*R)-(2-methyl-4-((tetrahydro-2H-pyran-4-yl)oxy)phenyl)-4-oxo-4,5-dihydro-3H-1-thia-3,5,8-triazaacenaphthylene-2-carboxamide] it was 6.06; in that of `Cc1cc(Oc2ccccc2)ncc1N1C(=O)Nc2c(C(=O)N[C@@H]3CC[C@H](N)C3)sc3nccc1c23` (single isomer, unassigned) [Example 355, N-((1R,3S)-3-Aminocyclopentyl)-5-(*S)-(4-methyl-6-phenoxypyridin-3-yl)-4-oxo-4,5-dihydro-3H-1-thia-3,5,8-triazaacenaphthylene-2-carboxamide], 6.61. Still for that read-out and setting: in the case of `CC(=O)N[C@@H]1CCC[C@H]1NC(=O)c1sc2nccc3c2c1NC(=O)N3c1ccc(Oc2ccccc2)nc1C` (single isomer, unassigned) [Example 358, N-((1R,2R)-2-Acetamidocyclopentyl)-5-(*S)-(2-methyl-6-phenoxypyridin-3-yl)-4-oxo-4,5-dihydro-3H-1-thia-3,5,8-triazaacenaphthylene-2-carboxamide] it was 6.44; in that of `C=CC(=O)N[C@H]1CC[C@@H](NC(=O)c2sc3nccc4c3c2NC(=O)N4c2cnc(Oc3ccccc3)cc2C)C1` (single isomer, unassigned) [Example 359, N-((1R,3S)-3-Acrylamidocyclopentyl)-5-(*S)-(4-methyl-6-phenoxypyridin-3-yl)-4-oxo-4,5-dihydro-3H-1-thia-3,5,8-triazaacenaphthylene-2-carboxamide], 8.05.

Still in this experiment, the particulars now being: read-out: BTK_I_binding pIC50 (converted).
As for `Cc1nc(Oc2ccccc2)ccc1N1C(=O)Nc2c(C(=O)N[C@@H]3CCCC[C@H]3N)sc3nccc1c23` (single isomer, unassigned) [Example 350, N-((1R,2R)-2-Aminocyclohexyl)-5-(*S)-(2-methyl-6-phenoxypyridin-3-yl)-4-oxo-4,5-dihydro-3H-1-thia-3,5,8-triazaacenaphthylene-2-carboxamide], the IC50 is > 1000 nM. With `C=CC(=O)N[C@H]1CCCC[C@H]1NC(=O)c1sc2nccc3c2c1NC(=O)N3c1cnc(OCC(C)C)cc1C` (single isomer, unassigned) [Example 352, N-((1R,2S)-2-Acrylamidocyclohexyl)-5-(*R)-(6-isobutoxy-4-methylpyridin-3-yl)-4-oxo-4,5-dihydro-3H-1-thia-3,5,8-triazaacenaphthylene-2-carboxamide], the IC50 was > 1000 nM. Still for that read-out and setting: for `CCC(=O)N[C@@H]1CCC[C@H]1NC(=O)c1sc2nccc3c2c1NC(=O)N3c1ccc(Oc2ccccc2)nc1C` (single isomer, unassigned) [Example 353, 5-(*S)-(2-Methyl-6-phenoxypyridin-3-yl)-4-oxo-N-((1R,2R)-2-propionamidocyclopentyl)-4,5-dihydro-3H-1-thia-3,5,8-triazaacenaphthylene-2-carboxamide] the value was > 1000 nM; for `Cc1cc(Oc2ccccc2)ncc1N1C(=O)Nc2c(C(=O)N[C@@H]3CCC[C@H](N)C3)sc3nccc1c23` (single isomer, unassigned) [Example 356, N-((1R,3S)-3-Aminocyclohexyl)-5-(*S)-(4-methyl-6-phenoxypyridin-3-yl)-4-oxo-4,5-dihydro-3H-1-thia-3,5,8-triazaacenaphthylene-2-carboxamide], > 1000 nM.
